According to the supplement of paper PMC9013687:

Legend:
Danio rerio embryo [1] = assay: EC20 Eye size_Decrease; higher = less potent
Method: (§1)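 Zebrafish embryos (UFZ-OBI strain) were exposed from 2 hpf for 48 h (2 dpf) or 96 h (4 dpf) at 28 °C; spontaneous tail coiling was scored at 25 hpf. Morphological features from automated image analysis (FishInspector), heart rate and locomotor response were fitted with drc models. Quantal endpoints were dichotomised at 2.5 SD from controls and fitted with a log-logistic model; heart rate, pigmentation and STC were normalised to the replicate control mean. Betamethasone was tested as betamethasone dipropionate, diflorasone as diflorasone diacetate.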

Danio rerio embryo [2] = assay: EC50 Eye size_Decrease
Method: as §1

Danio rerio embryo [3] = assay: EC20 Lack of SB; higher = less potent; settings: exposure time: 4 dpf
Method: as §1

Danio rerio embryo [4] = settings: exposure time: 4 dpf
Method: as §1

Danio rerio embryo [5] = assay: EC10 Head size_Decrease; higher = less potent
Method: as §1

Danio rerio embryo [6] = assay: EC20 Pigmentation increase; higher = less potent; settings: exposure time: 4 dpf
Method: as §1

Danio rerio embryo [7] = assay: EC20 Heart rate; higher = less potent
Method: as §1

Danio rerio embryo [8] = assay: EC20 Head size_Decrease; higher = less potent
Method: as §1

Danio rerio embryo [9] = assay: EC10 STC increase; higher = less potent; settings: exposure time: 25 h
Method: as §1

Danio rerio embryo [10] = assay: EC50 Head size_Decrease
Method: as §1

Danio rerio embryo [11] = assay: EC10 Pigmentation increase; higher = less potent; settings: exposure time: 4 dpf
Method: as §1

Danio rerio embryo [12] = assay: EC10 Lack of SB; higher = less potent; settings: exposure time: 4 dpf
Method: as §1

Danio rerio embryo [13] = tested on: Danio rerio embryo
Method: as §1

Danio rerio embryo [14] = assay: EC20 STC increase; higher = less potent; settings: exposure time: 25 h
Method: as §1

Danio rerio embryo [15] = assay: EC10 Eye size_Decrease; higher = less potent
Method: as §1

Danio rerio embryo [16] = assay: EC10 Heart rate; higher = less potent
Method: as §1

Danio rerio embryo [17] = assay: EC10 LMR ligth increase; higher = less potent; settings: exposure time: 4 dpf
Method: as §1

Danio rerio embryo [18] = assay: EC20 LMR ligth increase; higher = less potent; settings: exposure time: 4 dpf
Method: as §1

Danio rerio embryo [19] = assay: EC10 Pigmentation decrease; higher = less potent; settings: exposure time: 2 dpf
Method: as §1

Danio rerio embryo [20] = assay: EC20 Pigmentation decrease; higher = less potent; settings: exposure time: 2 dpf
Method: as §1

Danio rerio embryo [21] = settings: exposure time: 2 dpf
Method: as §1

Danio rerio embryo [22] = assay: EC10 STC decrease; higher = less potent; settings: exposure time: 25 h
Method: as §1

Danio rerio embryo [23] = assay: EC20 STC decrease; higher = less potent; settings: exposure time: 25 h
Method: as §1

Danio rerio embryo [24] = assay: EC20 Otolith; higher = less potent; settings: exposure time: 2 dpf
Method: as §1

Danio rerio embryo [25] = assay: EC10 Otolith; higher = less potent; settings: exposure time: 2 dpf
Method: as §1

Danio rerio embryo [26] = assay: EC50 Head trunk angle_Decrease; settings: exposure time: 2 dpf
Method: as §1

Danio rerio embryo [27] = assay: EC20 Head trunk angle_Decrease; higher = less potent; settings: exposure time: 2 dpf
Method: as §1

Danio rerio embryo [28] = assay: EC10 Head trunk angle_Decrease; higher = less potent; settings: exposure time: 2 dpf
Method: as §1

Danio rerio embryo [29] = assay: EC10 Mandibular arch distance_Decrease; higher = less potent; settings: exposure time: 4 dpf
Method: as §1

Danio rerio embryo [30] = assay: EC50 Mandibular arch distance_Decrease; settings: exposure time: 4 dpf
Method: as §1

Danio rerio embryo [31] = assay: EC20 Mandibular arch distance_Decrease; higher = less potent; settings: exposure time: 4 dpf
Method: as §1

Danio rerio embryo [32] = assay: EC10 LMR ligth decrease; higher = less potent; settings: exposure time: 4 dpf
Method: as §1

Danio rerio embryo [33] = assay: EC20 LMR ligth decrease; higher = less potent; settings: exposure time: 4 dpf
Method: as §1

SMILES	EC20 Eye size Decrease (Danio rerio embryo [1]; exposure time: 2 dpf) [µM]	EC20 Eye size Decrease (Danio rerio embryo [1]; exposure time: 4 dpf) [µM]	EC50 Eye size Decrease (Danio rerio embryo [2]; exposure time: 2 dpf) [µM]	EC50 Eye size Decrease (Danio rerio embryo [2]; exposure time: 4 dpf) [µM]	EC20 Lack of SB (Danio rerio embryo [3]) [µM]	EC50 Lack of SB (Danio rerio embryo [4]) [µM]	EC10 Head size Decrease (Danio rerio embryo [5]; exposure time: 2 dpf) [µM]	EC20 Heart rate (Danio rerio embryo [7]; exposure time: 2 dpf) [µM]	EC20 Heart rate (Danio rerio embryo [7]; exposure time: 4 dpf) [µM]	EC20 Head size Decrease (Danio rerio embryo [8]; exposure time: 2 dpf) [µM]	EC50 Head size Decrease (Danio rerio embryo [10]; exposure time: 2 dpf) [µM]	EC10 Lack of SB (Danio rerio embryo [12]) [µM]	EC50 Heart rate (Danio rerio embryo [13]; exposure time: 2 dpf) [µM]	EC10 Eye size Decrease (Danio rerio embryo [15]; exposure time: 2 dpf) [µM]	EC10 Eye size Decrease (Danio rerio embryo [15]; exposure time: 4 dpf) [µM]	EC10 Heart rate (Danio rerio embryo [16]; exposure time: 2 dpf) [µM]	EC10 Heart rate (Danio rerio embryo [16]; exposure time: 4 dpf) [µM]	EC10 Pigmentation decrease (Danio rerio embryo [19]) [µM]	EC50 Heart rate (Danio rerio embryo [13]; exposure time: 4 dpf) [µM]	EC20 Pigmentation decrease (Danio rerio embryo [20]) [µM]	further results
O=C(O)CCc1nc(-c2ccccc2)c(-c2ccccc2)o1 [Oxaprozin]	61.2	22.7	78.1	26.7	8.73	10.5	10.8	52.1	29.1	15.1	26.6	7.85	150	53.1	20.6	28	23	–	–	–	EC10 Head size Decrease (Danio rerio embryo [5]; exposure time: 4 dpf): 12.4 µM; EC20 Pigmentation increase (Danio rerio embryo [6]): 31 µM; EC20 Head size Decrease (Danio rerio embryo [8]; exposure time: 4 dpf): 19.7 µM; EC10 STC increase (Danio rerio embryo [9]): 6.23 µM; EC50 Head size Decrease (Danio rerio embryo [10]; exposure time: 4 dpf): 43.4 µM; EC10 Pigmentation increase (Danio rerio embryo [11]): 29.2 µM; EC20 STC increase (Danio rerio embryo [14]): 12.4 µM
CCCNCC(O)COc1ccccc1C(=O)CCc1ccccc1 (stereo not given) [Propafenone]	–	–	–	–	6.61	7.65	–	4.31	4.78	–	–	6.08	52.1	–	–	1	2.29	43	16.8	49.3	EC10 LMR ligth increase (Danio rerio embryo [17]): 16.4 µM; EC10 Head size Decrease (Danio rerio embryo [5]; exposure time: 4 dpf): 13.4 µM; EC20 Pigmentation increase (Danio rerio embryo [6]): 26.5 µM; EC20 Head size Decrease (Danio rerio embryo [8]; exposure time: 4 dpf): 18.3 µM; EC20 LMR ligth increase (Danio rerio embryo [18]): 17.3 µM; EC50 Head size Decrease (Danio rerio embryo [10]; exposure time: 4 dpf): 31 µM; EC10 Pigmentation increase (Danio rerio embryo [11]): 23.1 µM; EC50 Pigmentation decrease (Danio rerio embryo [21]): 62.3 µM; EC10 STC decrease (Danio rerio embryo [22]): 6.36 µM; EC20 STC decrease (Danio rerio embryo [23]): 13.3 µM
CCO/N=C(\CC)C1=C(O)CC(c2c(C)cc(C)cc2C)CC1=O (stereo not given) [Tralkoxydim]	122	94.7	164	104	51.2	63.2	74.7	–	49.9	103	176	45.3	–	103	89.7	–	46.5	–	56.3	–	EC20 Otolith (Danio rerio embryo [24]): 160 µM; EC10 Otolith (Danio rerio embryo [25]): 126 µM; EC50 Head trunk angle Decrease (Danio rerio embryo [26]): 120 µM; EC10 STC decrease (Danio rerio embryo [22]): 127 µM; EC20 Head trunk angle Decrease (Danio rerio embryo [27]): 88 µM; EC20 STC decrease (Danio rerio embryo [23]): 142 µM; EC10 Head trunk angle Decrease (Danio rerio embryo [28]): 73.6 µM
CC(C)(C)C(O)C(Oc1ccc(Cl)cc1)n1cncn1 (stereo not given) [Triadimenol]	159	90.2	200	108	20.1	20.9	132	23.2	96.8	147	177	19.6	56.8	138	81.1	13.7	64.4	76.2	194	98.2	EC10 Mandibular arch distance Decrease (Danio rerio embryo [29]): 116 µM; EC10 LMR ligth increase (Danio rerio embryo [17]): 8.63 µM; EC50 Mandibular arch distance Decrease (Danio rerio embryo [30]): 169 µM; EC20 Mandibular arch distance Decrease (Danio rerio embryo [31]): 133 µM; EC20 LMR ligth increase (Danio rerio embryo [18]): 17.3 µM; EC50 Pigmentation decrease (Danio rerio embryo [21]): 152 µM; EC50 Head trunk angle Decrease (Danio rerio embryo [26]): 152 µM; EC10 STC decrease (Danio rerio embryo [22]): 118 µM; EC20 Head trunk angle Decrease (Danio rerio embryo [27]): 113 µM; EC20 STC decrease (Danio rerio embryo [23]): 135 µM; EC10 Head trunk angle Decrease (Danio rerio embryo [28]): 94.5 µM
CSc1nc2cc(Cl)c(Oc3cccc(Cl)c3Cl)cc2[nH]1 [Triclabendazole]	1.42	0.512	1.72	0.644	0.481	0.516	–	0.829	0.364	–	–	0.462	3.71	1.27	0.448	0.345	0.19	1.44	1.11	1.6	EC10 LMR ligth decrease (Danio rerio embryo [32]): 0.783 µM; EC20 Pigmentation increase (Danio rerio embryo [6]): 0.667 µM; EC10 Pigmentation increase (Danio rerio embryo [11]): 0.654 µM; EC50 Pigmentation decrease (Danio rerio embryo [21]): 1.92 µM; EC50 Head trunk angle Decrease (Danio rerio embryo [26]): 2.05 µM; EC10 STC decrease (Danio rerio embryo [22]): 0.00111 µM; EC20 Head trunk angle Decrease (Danio rerio embryo [27]): 1.6 µM; EC20 LMR ligth decrease (Danio rerio embryo [33]): 0.792 µM; EC20 STC decrease (Danio rerio embryo [23]): 0.00782 µM; EC10 Head trunk angle Decrease (Danio rerio embryo [28]): 1.39 µM
CCCCOC(=O)[C@@H](C)Oc1ccc(Oc2ccc(C(F)(F)F)cn2)cc1 [fluazifop-p-butyl]	1.69	1.07	3.96	1.85	0.991	1.65	3.19	–	–	4.24	6.88	0.734	–	1.03	0.781	–	–	2.74	–	4.35	EC20 Otolith (Danio rerio embryo [24]): 6.11 µM; EC10 Otolith (Danio rerio embryo [25]): 4.73 µM; EC50 Pigmentation decrease (Danio rerio embryo [21]): 9.58 µM; EC50 Head trunk angle Decrease (Danio rerio embryo [26]): 15.5 µM; EC20 Head trunk angle Decrease (Danio rerio embryo [27]): 3.89 µM; EC10 Head trunk angle Decrease (Danio rerio embryo [28]): 1.74 µM
